Laboratory results from paper PMC4401630 (Clinical cancer research : an official journal of the …, 2015).
Several values for one entry are separate records, joined by “and”; a condition that tells them apart may be missing. Equal entries are not always repeated.

Experiments:
pS6/S6 = assay: Immunohistochemistry of paired tumor tissues; assay type: in vivo, human; details: mean (±SD)
[1] = system: resectable non-small cell lung cancer (NSCLC); assay: Metabolic response on paired 18F-FDG PET/CT; assay type: in vivo, human; details: for Change in metabolic activity (SUVmax): up to 28 days, control 29.0%; for Change in metabolic activity (SUVmax) / Mean reduction in SUVmax (percent change of initial SUVmax): p=0.014; for Mean reduction in SUVmax (percent change of initial SUVmax): control mean increase of 29%
BCL2L-11 gene = assay: Gene expression profiling by RNA-Seq, baseline vs post-treatment tumor; assay type: in vivo, human; details: responder with sarcomatoid NSCLC, 10mg everolimus
[2] = system: phospho-S6 Ser235/236 (pS6); assay: Immunohistochemistry of paired tumor tissues; assay type: in vivo, human; details: mean (±SD)
[3] = system: phospho-mTOR Ser2448 (pMTOR); assay: Immunohistochemistry of paired tumor tissues; assay type: in vivo, human; details: mean (±SD)
[4] = Everolimus pharmacokinetic analysis in whole blood; details: for Tmax: NSCLC patients
p70S6K = assay: Immunohistochemistry of paired tumor tissues; assay type: in vivo, human; details: mean (±SD)
Bim = assay: Immunohistochemistry of tumor tissues; details: for BIM expression immunoscore in post-treatment samples: control 48.6
S6 = assay: Immunohistochemistry of paired tumor tissues; assay type: in vivo, human; details: mean (±SD)
[5] = Safety: treatment-emergent adverse events; assay type: in vivo, human
[6] = system: phospho-eIF4E Ser209 (pe1f4e); assay: Immunohistochemistry of paired tumor tissues; assay type: in vivo, human; details: mean (±SD)
[7] = system: resectable non-small cell lung cancer (NSCLC); assay: Anatomic response, tumor size; assay type: in vivo, human
[8] = system: phospho-Akt Ser473 (pAKT); assay: Immunohistochemistry of tumor tissues; assay type: in vivo, human
[9] = system: phospho-4E-BP1 Thr37/46 (p4E-BP1); assay: Immunohistochemistry of paired tumor tissues; assay type: in vivo, human; details: mean (±SD)
[10] = dose of everolimus 5, listed as Everolimus
[11] = dose of everolimus 10, listed as Everolimus
[12] = human, whole blood, oral, 10 mg
[13] = dose of everolimus 10, mean (±SD)

CO[C@H]1C[C@@H]2CC[C@@H](C)[C@@](O)(O2)C(=O)C(=O)N2CCCC[C@H]2C(=O)O[C@H]([C@H](C)C[C@@H]2CC[C@@H](OCCO)[C@H](OC)C2)CC(=O)[C@H](C)/C=C(\C)[C@@H](O)[C@@H](OC)C(=O)[C@H](C)C[C@H](C)/C=C/C=C/C=C/1C [everolimus]
pS6/S6 percent change, post-treatment relative to baseline (pS6/S6; dose of everolimus 5): −100 (±NA) %
pS6/S6 percent change, post-treatment relative to baseline (pS6/S6; dose of everolimus 10): 128.57 (± 219.26) %
Change in metabolic activity (SUVmax) ([1]; 5mg cohort): −21%
Partial metabolic response (PMR) rate, PERCIST ([1]; 5mg everolimus group): 36%
Stable metabolic disease (SMD) rate, PERCIST ([1]; 5mg everolimus group): 64%
Change in metabolic activity (SUVmax) ([1]; 10mg cohort): −24%
Partial metabolic response (PMR) rate, PERCIST ([1]; 10mg everolimus group): 50%
Stable metabolic disease (SMD) rate, PERCIST ([1]; 10mg everolimus group): 50%
Reduction in mean metabolic activity, RAS mutant tumors ([1]; RAS mutant tumors treated with everolimus (10mg), control 88% increase, p=0.218): 30%
Mean reduction in SUVmax (percent change of initial SUVmax) ([1]; everolimus 5mg): 21%
Mean reduction in SUVmax (percent change of initial SUVmax) ([1]; everolimus 10mg): 24%
Reduction in metabolic activity, non-RAS mutant tumors ([1]; everolimus (10mg) group, control 12% increase, p=0.039): 21%
Reduction in SUVmax, single patient (near complete metabolic response) ([1]; one patient, sarcomatoid NSCLC, 10mg everolimus for 3 weeks): 74%
Increase in BCL2L-11 gene (BIM) expression, post-treatment vs baseline sample (BCL2L-11 gene): 6 fold
pS6 percent change in immunoscore, post-treatment relative to baseline ([2]; dose of everolimus 5): −61.57%
pS6 percent change in immunoscore, post-treatment relative to baseline [2, 10]: −61.57 (± 35.8) %
pS6 percent change in immunoscore, post-treatment relative to baseline ([2]; dose of everolimus 10): −47.21%
pS6 percent change in immunoscore, post-treatment relative to baseline [2, 11]: −47.21 (± 44.96) %
pMTOR percent change in immunoscore, post-treatment relative to baseline ([3]; dose of everolimus 5): 30 (± 153.95) %
pMTOR percent change in immunoscore, post-treatment relative to baseline ([3]; dose of everolimus 10): −63.82 (± 51.3) %
Tmax ([4]; 5 mg daily (n=12), whole blood): 2 (1 – 2) hr.
Day 21 Cmax ([4]; 10 mg daily (n=7), whole blood): 51.5 ± 9.9 ng/mL
Tmax ([4]; 10 mg daily (n=7), whole blood): 2 (1 – 2) hr.
Accumulation ([4]; at either dose level (5mg, 10mg), days 8 and 21 vs day 1): no significant accumulation
concentration at 8 day ([4]; human, whole blood, oral, 5 mg): 6.3 ± 2.9 ng/mL
concentration at 21 day ([4]; human, whole blood, oral, 5 mg): 5.7 ± 2.3 ng/mL
half-life ([4]; human, whole blood, oral, 5 mg): 1590 min
Cmax ([4]; human, whole blood, oral, 5 mg, Day 1 Cmax, 5 mg daily (n=12), whole blood): 29.2 ± 9.9 ng/mL
Cmax ([4]; human, whole blood, oral, 5 mg, Day 8 Cmax, 5 mg daily (n=12), whole blood): 42.1 ± 17.2 ng/mL
AUC(0-t) ([4]; human, whole blood, oral, 5 mg, Day 21 AUC0-24, 5 mg daily (n=12), whole blood): 205 ± 87.4 ng·h/mL
concentration at 8 day [4, 12]: 17.8 ± 7.6 ng/mL
concentration at 21 day [4, 12]: 13.7 ± 9.2 ng/mL
AUC(0-t) ([4]; human, whole blood, oral, 10 mg, Day 8 AUC0-24, 10 mg daily (n=7), whole blood): 579 ± 186 ng·h/mL
AUC(0-t) ([4]; human, whole blood, oral, 10 mg, Day 21 AUC0-24, 10 mg daily (n=7), whole blood): 506 ± 208 ng·h/mL
p70s6k percent change in immunoscore, post-treatment relative to baseline (p70S6K; dose of everolimus 5): 137.14 (± 442.07) %
p70s6k percent change in immunoscore, post-treatment relative to baseline (p70S6K; dose of everolimus 10): −78.62 (± 22.79) %
BIM expression immunoscore in post-treatment samples (Bim; 5mg everolimus): 84.3
BIM expression immunoscore in post-treatment samples (Bim; 10mg everolimus): 80.5
Bim percent change in immunoscore, post-treatment relative to baseline (Bim; [13]): −21.76 (± 60.07) %
BIM expression immunoscore, treated compared to control patients (Bim; post-treatment samples, treated patients vs control): ~2 fold
S6 percent change in immunoscore, post-treatment relative to baseline (S6; dose of everolimus 5): −13.7%
S6 percent change in immunoscore, post-treatment relative to baseline (S6; [10]): −13.69 (± 144.05) %
S6 percent change in immunoscore, post-treatment relative to baseline (S6; dose of everolimus 10): −77.0% and −77.03%
S6 percent change in immunoscore, post-treatment relative to baseline (S6; [11]): −77.03 (± 16.02) %
MRSA Bacteremia, Grade 3 ([5]; CTCAE version 3, patients treated with everolimus (5 or 10 mg daily)): 1
Median length of hospital stay (LOS) after resection ([5]; in vivo): 5 days
Range of length of hospital stay (LOS) after resection ([5]; in vivo): 3 to 43 days
pe1f4e percent change in immunoscore, post-treatment relative to baseline ([6]; dose of everolimus 5): 2.78 (± 5.56) %
pe1f4e percent change in immunoscore, post-treatment relative to baseline ([6]; dose of everolimus 10): −27.13 (± 42.17) %
Patients achieving SD (RECIST) ([7]; 5mg everolimus): 82%
Patients with best response of PD (RECIST) ([7]; 5mg everolimus): 18%
Change in tumor size ([7]; 10mg cohort, control 10.1%, p=0.047): −11.6%
Patients meeting RECIST criteria for partial response ([7]; 10mg everolimus group): 9%
Patients with SD (RECIST) ([7]; 10mg everolimus group): 91%
Tumor shrinkage in partial response ([7]; 10mg everolimus group, partial response): 30%
Unmatched mean immunoscore, nuclear pAKT staining, post-treatment ([8]; 5 mg cohort, baseline 0.3): 15
Unmatched mean immunoscore, cytoplasmic pAKT staining, post-treatment ([8]; 5 mg cohort, baseline 13.1): 47.5
Unmatched mean immunoscore, nuclear pAKT staining, post-treatment ([8]; 10 mg cohort, baseline 0.01): 4.4
Unmatched mean immunoscore, cytoplasmic pAKT staining, post-treatment ([8]; 10 mg cohort, baseline 0.42): 2.34
PAKT Nuclear percent change in immunoscore, post-treatment relative to baseline [8, 13]: 0 (± 0) %
p4E-BP1 percent change in immunoscore, post-treatment relative to baseline ([9]; dose of everolimus 5): 150 (±NA) %
p4E-BP1 percent change in immunoscore, post-treatment relative to baseline ([9]; dose of everolimus 10): −78.75 (± 14.36) %
